# Data published in the supplement of paper PMC4862054.
# Experiments:
# Conditions in all cases: incubation time: 72 h
# HCC1599 [1] = test: normalised response (% of control), CellTox Green; higher = less cell death (100 = DMSO, 0 = benzethonium chloride kill control)
# Outline: (§1)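 Each entry is the normalised signal at a single concentration within a series. The series comprised 5 concentrations in 10-fold steps over a compound-specific 10,000-fold range, placed in 384-well plates into which breast cancer cell lines were seeded as 20 µl suspension and incubated 72 h. CellTox Green (485/520 nm) fluorescence and then CellTiter-Glo luminescence were read, with signals normalised per plate to 0.1 % DMSO (100) and a positive kill control (0).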
# CAL-85-1 [2] = test: as above
# Outline: as §1
# MDA-MB-453 [3] = test: as above
# Outline: as §1
# BT-549 [4] = test: as above
# Outline: as §1
# CAL-120 [5] = test: as above
# Outline: as §1
# MDA-MB-436 [6] = test: as above
# Outline: as §1
# BT-474 [7] = test: as above
# Outline: as §1
# MDA-MB-468 [8] = test: as above
# Outline: as §1
# CAL-51 [9] = test: as above
# Outline: as §1
# MCF-10A [10] = test: as above
# Outline: as §1
# HDQ-P1 [11] = test: as above
# Outline: as §1
# CAL-148 [12] = test: as above
# Outline: as §1
# DU-4475 [13] = test: as above
# Outline: as §1
# MDA-MB-231 [14] = test: as above
# Outline: as §1
# HCC1143 [15] = test: normalised response (% of control), CellTiter-Glo; higher = more viable cells (100 = DMSO, 0 = benzethonium chloride kill control)
# Description: (§2)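 DSRT, 72 h incubation, CellTox Green / CellTiter-Glo readout. Signal is normalised to DMSO and benzethonium chloride controls. Value is the normalised response at dose 3.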
# HCC1599 [16] = test: as above
# Description: as §2
# CAL-85-1 [17] = test: as above
# Description: as §2
# MDA-MB-453 [18] = test: as above
# Description: as §2
# SK-BR-3 [19] = test: as above
# Description: as §2
# BT-549 [20] = test: as above
# Description: as §2
# CAL-120 [21] = test: as above
# Description: as §2
# MDA-MB-436 [22] = test: as above
# Description: as §2
# BT-474 [23] = test: as above
# Description: as §2
# Hs578T [24] = test: as above
# Description: as §2
# MDA-MB-468 [25] = test: as above
# Description: as §2
# MFM-223 [26] = test: as above
# Description: as §2
# CAL-51 [27] = test: as above
# Description: as §2
# MCF-10A [28] = test: as above
# Description: as §2
# HCC1937 [29] = test: as above
# Description: as §2
# HDQ-P1 [30] = test: as above
# Description: as §2
# CAL-148 [31] = test: as above
# Description: as §2
# DU-4475 [32] = test: as above
# Description: as §2
# MDA-MB-231 [33] = test: as above
# Description: as §2
# HCC1143 [34] = test: normalised response (% of control), CellTiter-Glo; higher = more viable cells (100 = DMSO, 0 = benzethonium chloride kill control); remark: listed apart in the source
# Outline: as §1
# HCC1599 [35] = test: as above; remark: listed apart in the source
# Outline: as §1
# CAL-85-1 [36] = test: as above; remark: listed apart in the source
# Outline: as §1
# MDA-MB-453 [37] = test: as above; remark: listed apart in the source
# Outline: as §1
# SK-BR-3 [38] = test: as above; remark: listed apart in the source
# Outline: as §1
# BT-549 [39] = test: as above; remark: listed apart in the source
# Outline: as §1
# CAL-120 [40] = test: as above; remark: listed apart in the source
# Outline: as §1
# MDA-MB-436 [41] = test: as above; remark: listed apart in the source
# Outline: as §1
# BT-474 [42] = test: as above; remark: listed apart in the source
# Outline: as §1
# Hs578T [43] = test: as above; remark: listed apart in the source
# Outline: as §1
# MDA-MB-468 [44] = test: as above; remark: listed apart in the source
# Outline: as §1
# MFM-223 [45] = test: as above; remark: listed apart in the source
# Outline: as §1
# CAL-51 [46] = test: as above; remark: listed apart in the source
# Outline: as §1
# MCF-10A [47] = test: as above; remark: listed apart in the source
# Outline: as §1
# HCC1937 [48] = test: as above; remark: listed apart in the source
# Outline: as §1
# HDQ-P1 [49] = test: as above; remark: listed apart in the source
# Outline: as §1
# CAL-148 [50] = test: as above; remark: listed apart in the source
# Outline: as §1
# DU-4475 [51] = test: as above; remark: listed apart in the source
# Outline: as §1
# MDA-MB-231 [52] = test: as above; remark: listed apart in the source
# Outline: as §1
# HCC1143 [53] = test: normalised response (% of control), CellTox Green; higher = less cell death (100 = DMSO, 0 = benzethonium chloride kill control)
# Outline: as §1
# Hs578T [54] = test: as above
# Outline: as §1
# MFM-223 [55] = test: as above
# Outline: as §1
# HCC1937 [56] = test: as above
# Outline: as §1
structure (smiles),measurement,setting,value
Cn1cc(C[C@@H](N)C(=O)O)c2ccccc21 [1-methyl-D-tryptophan] (50 nM),normalised response,HCC1599 [1],94.2%
same,normalised response,CAL-85-1 [2],98.5%
same,normalised response,MDA-MB-453 [3],105%
same,normalised response,BT-549 [4],88%
same,normalised response,CAL-120 [5],96.8%
same,normalised response,MDA-MB-436 [6],73.2%
same,normalised response,BT-474 [7],99.9%
same,normalised response,MDA-MB-468 [8],99.9%
same,normalised response,CAL-51 [9],80.4%
same,normalised response,MCF-10A [10],102%
same,normalised response,HDQ-P1 [11],105%
same,normalised response,CAL-148 [12],68.5%
same,normalised response,DU-4475 [13],103%
same,normalised response,MDA-MB-231 [14],83%
same,normalised response,HCC1143 [15],99%
same,normalised response,HCC1599 [16],92.6%
same,normalised response,CAL-85-1 [17],102%
same,normalised response,MDA-MB-453 [18],96%
same,normalised response,SK-BR-3 [19],90.8%
same,normalised response,BT-549 [20],107%
same,normalised response,CAL-120 [21],104%
same,normalised response,MDA-MB-436 [22],102%
same,normalised response,BT-474 [23],103%
same,normalised response,Hs578T [24],95.4%
same,normalised response,MDA-MB-468 [25],92.6%
same,normalised response,MFM-223 [26],93.4%
same,normalised response,CAL-51 [27],67.8%
same,normalised response,MCF-10A [28],102%
same,normalised response,HCC1937 [29],96.2%
same,normalised response,HDQ-P1 [30],102%
same,normalised response,CAL-148 [31],90.1%
same,normalised response,DU-4475 [32],100%
same,normalised response,MDA-MB-231 [33],98.5%
CC(C)n1nc(-c2ccc3oc(N)nc3c2)c2c(N)ncnc21 [INK128] (100 nM),normalised response,HCC1143 [34],39.9%
same,normalised response,HCC1599 [35],68%
same,normalised response,CAL-85-1 [36],35.4%
same,normalised response,MDA-MB-453 [37],37.2%
same,normalised response,SK-BR-3 [38],22.6%
same,normalised response,BT-549 [39],30.7%
same,normalised response,CAL-120 [40],30.6%
same,normalised response,MDA-MB-436 [41],48.6%
same,normalised response,BT-474 [42],50.4%
same,normalised response,Hs578T [43],35.1%
same,normalised response,MDA-MB-468 [44],39.5%
same,normalised response,MFM-223 [45],32.2%
same,normalised response,CAL-51 [46],29.3%
same,normalised response,MCF-10A [47],43.5%
same,normalised response,HCC1937 [48],59.7%
same,normalised response,HDQ-P1 [49],42.6%
same,normalised response,CAL-148 [50],32.7%
same,normalised response,DU-4475 [51],66%
same,normalised response,MDA-MB-231 [52],50.3%
same,normalised response,HCC1143 [53],8.7%
same,normalised response,HCC1599 [1],95.5%
same,normalised response,CAL-85-1 [2],101%
same,normalised response,MDA-MB-453 [3],26%
same,normalised response,BT-549 [4],115%
same,normalised response,CAL-120 [5],97.1%
same,normalised response,MDA-MB-436 [6],94.4%
same,normalised response,BT-474 [7],96.5%
same,normalised response,Hs578T [54],65.8%
same,normalised response,MDA-MB-468 [8],137%
same,normalised response,MFM-223 [55],93.9%
same,normalised response,CAL-51 [9],87.6%
same,normalised response,MCF-10A [10],95.8%
same,normalised response,HCC1937 [56],96.1%
same,normalised response,HDQ-P1 [11],108%
same,normalised response,CAL-148 [12],58.8%
same,normalised response,DU-4475 [13],94%
same,normalised response,MDA-MB-231 [14],108%
